From patent US6921840B1 (The Trustees of the University of Pennsylvania, priority 1999, dated 2005)
“And” between values parts separate entries of the source, which are not always exact repeats. Equal entries are not always repeated. Where two headings read alike, the source gives them in different places.

Tests used:
serotonin transporters = assay: SPECT imaging in baboons; conditions: baboon, 120 minutes post-i.v. injection
Source text: The acquisition of SPECT images were obtained by a triple-head gamma camera equipped with ultra high resolution fan-beam collimators (Picker Prism 3000). […] The projection images were reconstructed by filtered-back projection. Then, a 3D, low pass Butterworth filter was applied. For uniform attenuation correction, Chang's first order method was used.

[1] = In vitro stability of radioiodinated ligand; type: physicochemical
[2] = Biodistribution in rats after i.v. injection of radioactive tracer; type: in vivo, rat
Experimental: Three or four rats per group were used for each biodistribution study. While under ether anesthesia, 0.2 ml of a saline solution containing 10 μCi of radioactive tracer was injected into the femoral vein. The rats were sacrificed at the time indicated by cardiac excision while under ether anesthesia. Organs of interest were removed and weighed, and the radioactivity was counted using a Packard automatic gamma counter (Model 5000). The percent dose per organ was calculated by a comparison of the tissue counts to counts of 1% of the initial dose (100 times diluted aliquots of the injected material) measured at the same time.
Regional brain distribution in rats was measured after an i.v. injection of the radioactive tracer. Samples from different brain regions [cortex (CX), striatum (ST), hippocampus (HP), cerebellum (CB) and hypothalamus (HY)] were dissected, weighed and counted. The percentage dose/g of each sample was calculated by comparing sample counts with the counts of the diluted initial dose described above. The ratio of specific binding (SB) in each region was obtained by dividing the difference of each region from the cerebellum (percentage dose/g) with that of the cerebellum [(region-CB)/CB].

SERT [3] = biological target: T1, SERT (Rattus norvegicus, UniProt P31652)
Experimental: At 60 min post i.v. injection, the animals were sacrificed by cardiac excision while under ether anesthesia. The brains were rapidly removed, placed in embedding medium (Tissue Tek, Miles Laboratory, Elkhart, Ind.) and frozen with powdered dry ice. After reaching equilibrium at −20° C. consecutive 20 μm coronal sections were cut on a cryostat microtome (Hacker Instruments, Fairfield, N.J.) thaw-mounted on microscope slides, and air-dried at room temperature. […] The microscale standards were calibrated with tissue mash standards for the value conversion to nCi/mg protein. The exposed film was developed by a Kodak automatic film processor. […] The brain sections of the pretreated rats were processed following the same procedures described above for the normal untreated rats.

SERT [4] = biological target: T1, SERT; assay: [125I]IDAM saturation binding to rat frontal cortical membrane homogenates; parameters: The frontal cortex of rat brain were dissected and homogenized in 30 volumes of buffer; from tissue; host or cells: rat frontal cortex membrane homogenates (male Sprague-Dawley rats, control and PCA-lesioned)
Experimental: The homogenates were centrifuged at 20,000 g for 20 min. The resulting pellets were then re-suspended and recentrifuged. The final pellets were suspended in the same buffer and used for in vitro binding assays.
Binding assays were performed in glass tubes (12×75 mm) with a final volume of 0.5 ml.
Various inhibitors were serially diluted with the buffer containing 0.1% BSA to overcome the stickiness and loss due to dilution. […] Incubation was carried out for 60 min at room temperature and then terminated by separation of bound from free radioligand by filtration through glass fiber filters (Schleicher & Schuell No. 25, Keene, N.H.) presoaked with 1% polyethylenimine. The filters were then washed three times with 3 ml of ice-cold […] Tris buffer and counted in a gamma counter (Packard 5000) with 70% efficiency. To study the effect of […], the homogenates were prepared in a sodium-free 50 mM Tris-HCl/5 mM KCl buffer.
Ten rats were divided into two-groups, and they were injected daily with PCA (8 mg/kg, i.p.) or saline for 3 consecutive days, respectively. The animals were sacrificed 5 days after the last injection and the frontal cortical membrane homogenates were prepared.

[5] = Metabolite analysis of brain tissue; type: in vivo, rat; conditions: rats, 60 min post-injection
Experimental: Sixty minutes after an i.v. injection of 200-300 μCi of [^125I]IDAM into two male rats, the areas corresponding to the hypothalamus region were dissected individually. The tissues were then homogenized in 1.5 ml of 50 mM Tris buffer (pH 7.4) and the homogenates were extracted with ethyl acetate (3×1.5 ml) in the presence of the non-radioactive IDAM (100 μg). The extracted ethyl acetate layers were evaporated to near dryness and the purity of [^125I]IDAM in the condensed extracts was analyzed by HPLC (PRP-1 column; solvent: CH3CN/DMGA: 90/10; flow rate: 1 ml/min). Control samples were performed by adding 5-10 μCi of [^125I]IDAM to hypothalamus tissues followed by the same procedures used for the experimental samples to determine the extraction efficiency.

[6] = Partition coefficient octanol/buffer; type: physicochemical; conditions: n-octanol and phosphate buffer, pH 7.4
[7] = PCA-lesioned rats, frontal cortical membranes
[8] = control rats, frontal cortical membranes

T1 sequence (P31652 whole entry): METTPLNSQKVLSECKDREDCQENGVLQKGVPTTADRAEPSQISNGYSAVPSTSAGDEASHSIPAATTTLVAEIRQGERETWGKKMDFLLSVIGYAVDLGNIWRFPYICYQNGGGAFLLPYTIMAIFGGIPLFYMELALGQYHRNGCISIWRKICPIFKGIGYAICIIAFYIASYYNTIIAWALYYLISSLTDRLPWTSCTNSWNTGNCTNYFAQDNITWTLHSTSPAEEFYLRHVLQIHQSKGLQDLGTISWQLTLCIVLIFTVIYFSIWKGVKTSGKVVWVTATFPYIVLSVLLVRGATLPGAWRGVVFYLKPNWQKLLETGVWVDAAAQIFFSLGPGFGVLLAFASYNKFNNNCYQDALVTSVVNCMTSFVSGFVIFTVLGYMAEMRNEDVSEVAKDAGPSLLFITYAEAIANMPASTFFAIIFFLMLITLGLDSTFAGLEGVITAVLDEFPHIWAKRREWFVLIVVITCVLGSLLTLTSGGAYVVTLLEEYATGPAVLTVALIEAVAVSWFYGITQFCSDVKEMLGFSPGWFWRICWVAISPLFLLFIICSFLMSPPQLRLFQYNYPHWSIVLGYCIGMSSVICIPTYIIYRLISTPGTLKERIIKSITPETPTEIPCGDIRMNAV

## CN(C)Cc1ccccc1Sc1ccc(I)cc1CO [[^123I]IDAM]
Serotonin transporters
  ratio of MB/CER uptake: 2.4
[1]; prolonged standing (>20 hr) at 0-4° C. in saline solution
  in vitro stability: no decomposition observed

## CN(C)Cc1ccccc1Sc1ccc([125I])cc1CO [[^125I]IDAM]
[2]
  half-time of clearance from the brain regions: less than 60 min
[2]; 2 min
  % dose/g CEREBELLUM: 1.377 ± 0.479 % dose/g
  % dose/g CORTEX: 2.353 ± 0.444 % dose/g
  % dose/g HIPPOCAMPUS: 1.485 ± 0.263 % dose/g
  % dose/g HYPOTHALAMUS: 1.782 ± 0.412 % dose/g
  % dose/g STRIATUM: 1.377 ± 0.344 % dose/g
  % dose/organ BLOOD: 7.619 ± 0.41 % dose/organ
  % dose/organ BRAIN: 2.44 % dose/organ and 2.44 ± 0.34 % dose/organ
  % dose/organ HEART: 1.303 ± 0.10 % dose/organ
  % dose/organ KIDNEY: 6.54 ± 0.26 % dose/organ
  % dose/organ LIVER: 6.46 ± 1.18 % dose/organ
  % dose/organ LUNG: 10.42 ± 1.36 % dose/organ
  % dose/organ MUSCLE: 19.06 ± 8.51 % dose/organ
  % dose/organ SKIN: 3.27 ± 0.48 % dose/organ
  % dose/organ SPLEEN: 0.31 ± 0.08 % dose/organ
  SB: specific binding = (region-CB)/CB, CORTEX: 0.709
  SB: specific binding = (region-CB)/CB, HIPPOCAMPUS: 0.079
  SB: specific binding = (region-CB)/CB, HYPOTHALAMUS: 0.294
  SB: specific binding = (region-CB)/CB, STRIATUM: 0.000
[2]; 2 min post-injection
  total radioactivity recovered from the major organs: less than 60 % of total injected dose
[2]; 30 min
  % dose/g CEREBELLUM: 0.416 ± 0.045 % dose/g
  % dose/g CORTEX: 0.820 ± .0108 % dose/g
  % dose/g HIPPOCAMPUS: 0.832 ± 0.048 % dose/g
  % dose/g HYPOTHALAMUS: 0.918 ± 0.113 % dose/g
  % dose/g STRIATUM: 0.875 ± 0.086 % dose/g
  % dose/organ BLOOD: 7.63 ± 1.03 % dose/organ
  % dose/organ BRAIN: 1.174 ± 0.062 % dose/organ
  % dose/organ HEART: 0.27 ± 0.02 % dose/organ
  % dose/organ KIDNEY: 3.48 ± 0.643 % dose/organ
  % dose/organ LIVER: 4.709 ± 0.347 % dose/organ
  % dose/organ LUNG: 1.78 ± 0.08 % dose/organ
  % dose/organ MUSCLE: 16.27 ± 0.82 % dose/organ
  % dose/organ SKIN: 6.121 ± 0.536 % dose/organ
  % dose/organ SPLEEN: 0.279 ± 0.026 % dose/organ
  SB: specific binding = (region-CB)/CB, CORTEX: 0.972
  SB: specific binding = (region-CB)/CB, HIPPOCAMPUS: 1.002
  SB: specific binding = (region-CB)/CB, HYPOTHALAMUS: 1.208
  SB: specific binding = (region-CB)/CB, STRIATUM: 1.104
[2]; 60 min
  % dose/g CEREBELLUM: 0.153 ± 0.019 % dose/g
  % dose/g CORTEX: 0.310 ± 0.060 % dose/g
  % dose/g HIPPOCAMPUS: 0.355 ± 0.016 % dose/g
  % dose/g HYPOTHALAMUS: 0.422 ± 0.066 % dose/g
  % dose/g STRIATUM: 0.257 ± 0.042 % dose/g
  % dose/organ BLOOD: 6.380 ± 0.729 % dose/organ
  % dose/organ BRAIN: 0.50 % dose/organ and 0.503 ± 0.027 % dose/organ
  % dose/organ HEART: 0.187 ± 0.008 % dose/organ
  % dose/organ KIDNEY: 1.993 ± 0.351 % dose/organ
  % dose/organ LIVER: 4.120 ± 0.766 % dose/organ
  % dose/organ LUNG: 0.931 ± 0.086 % dose/organ
  % dose/organ MUSCLE: 6.775 ± 0.145 % dose/organ
  % dose/organ SKIN: 7.538 ± 0.127 % dose/organ
  % dose/organ SPLEEN: 0.167 ± 0.027 % dose/organ
  SB: specific binding = (region-CB)/CB, CORTEX: 1.024
  SB: specific binding = (region-CB)/CB, HIPPOCAMPUS: 1.313
  SB: specific binding = (region-CB)/CB, HYPOTHALAMUS: 1.75
  SB: specific binding = (region-CB)/CB, STRIATUM: 0.673
[2]; 120 min
  % dose/g CEREBELLUM: 0.053 ± 0.005 % dose/g
  % dose/g CORTEX: 0.89 ± 0.018 % dose/g
  % dose/g HIPPOCAMPUS: 0.134 ± 0.011 % dose/g
  % dose/g HYPOTHALAMUS: 0.142 ± 0.027 % dose/g
  % dose/g STRIATUM: 0.105 ± 0.052 % dose/g
  % dose/organ BLOOD: 4.160 ± 0.150 % dose/organ
  % dose/organ BRAIN: 0.17 % dose/organ and 0.168 ± 0.029 % dose/organ
  % dose/organ HEART: 0.114 ± 0.023 % dose/organ
  % dose/organ KIDNEY: 0.832 ± 0.071 % dose/organ
  % dose/organ LIVER: 2.722 ± 0.308 % dose/organ
  % dose/organ LUNG: 0.422 ± 0.055 % dose/organ
  % dose/organ MUSCLE: 4.714 ± 0.977 % dose/organ
  % dose/organ SKIN: 6.716 ± 1.304 % dose/organ
  % dose/organ SPLEEN: 0.066 ± 0.008 % dose/organ
  SB: specific binding = (region-CB)/CB, CORTEX: 0.674
  SB: specific binding = (region-CB)/CB, HIPPOCAMPUS: 1.524
  SB: specific binding = (region-CB)/CB, HYPOTHALAMUS: 1.679
  SB: specific binding = (region-CB)/CB, STRIATUM: 0.967
[2]; 240 min
  % dose/g CEREBELLUM: 0.012 ± 0.000 % dose/g
  % dose/g CORTEX: 0.017 ± 0.003 % dose/g
  % dose/g HIPPOCAMPUS: 0.020 ± 0.003 % dose/g
  % dose/g HYPOTHALAMUS: 0.022 ± 0.011 % dose/g
  % dose/g STRIATUM: 0.018 ± 0.002 % dose/g
  % dose/organ BLOOD: 2.246 ± 0.303 % dose/organ
  % dose/organ BRAIN: 0.033 ± 0.002 % dose/organ
  % dose/organ HEART: 0.048 ± 0.004 % dose/organ
  % dose/organ KIDNEY: 0.488 ± 0.065 % dose/organ
  % dose/organ LIVER: 1.469 ± 0.189 % dose/organ
  % dose/organ LUNG: 0.220 ± 0.018 % dose/organ
  % dose/organ MUSCLE: 2.818 ± 0.208 % dose/organ
  % dose/organ SKIN: 3.851 ± 0.073 % dose/organ
  % dose/organ SPLEEN: 0.024 ± 0.004 % dose/organ
  SB: specific binding = (region-CB)/CB, CORTEX: 0.475
  SB: specific binding = (region-CB)/CB, HIPPOCAMPUS: 0.705
  SB: specific binding = (region-CB)/CB, HYPOTHALAMUS: 0.865
  SB: specific binding = (region-CB)/CB, STRIATUM: 0.508
[1]; in 50% ethanol for up to two months after radioiodination
  stability: radiochemical purity determined by HPLC: > 95%
SERT [3]; HP
  nonspecific binding (non-paroxetine blockable): more than 70%
SERT [3]; hippocampal regions and several cortical regions
  percentage of specific binding (paroxetine blockable): less than 30%
SERT [3]; interperduncular nucleus, median raphe and dorsomedial hypothalamus
  percentage of specific binding (paroxetine blockable): more than 95%
SERT [4]; [7]
  Bmax of [125I]IDAM binding: 20±7 fmol/mg protein
  Kd: 0.05 ± 0.15 nM
  Kd of [125I]IDAM binding: no significant change
SERT [4]; after destruction of serotonergic neurons by PCA
  loss of [125I]IDAM binding to rat cortical membranes: 90%
SERT [4]; at Kd value, rat frontal cortical membranes
  nonspecific binding: < 5%
SERT [4]; [8]
  Bmax of [125I]IDAM binding: 272±30 fmol/mg protein
  Kd: 0.25 nM and 0.2 nM
[5]
  unmetabolized tracer recovered from hypothalamus region: > 95%
[6]
  partition coefficient (PC): 473
[6]; read-out: partition coefficient (PC) (converted)
  logD: 2.67
